Values of other authors, collected in US5854268A, “Azetidine, pyrrolidine and piperidine derivatives” (Merck Sharp & Dohme, Ltd., priority 1994, dated 1998).

Settings: therapeutic doses

## CNS(=O)(=O)Cc1ccc2[nH]cc(CCN(C)C)c2c1 [sumatriptan]
  adverse events in humans: certain adverse cardiovascular events
